What all share (assay type): cell-based
Assay [1] has as its target T1, vanilloid receptor (VR1) (Homo sapiens, UniProt Q8NER1).
T1 construct: expressed in transfected cells; host or cells: CHO-K1 cells (ECACC), stably transfected
Kind of assay: Functional FLIPR Ca2+ influx assay in CHO-K1 cells transfected with the VR1 gene, capsaicin stimulus (Pharmacological Method II). The source says: The agonistic or antagonistic action of the substances to be examined on the vanilloid receptor (VR1) can alternatively be determined by the following assay. According to this assay the Ca^2+ influx through the canal is quantified with the aid of a Ca^2+-sensitive dye (type Fluo-4, Molecular Probes, Europe BV, Leiden, Netherlands) in a fluorescent imaging plate reader (FLIPR, Molecular Devices, Sunnyvale, USA).
Chinese hamster ovary cells (CHO-K1 cells, European Collection of Cell Cultures (ECACC) UK) are stably transfected with the VR1 gene. For carrying out functional investigations, these cells are plated on poly-D-lysine-coated, black 96-well plates with a clear bottom (BD Biosciences, Heidelberg, Germany) in a density of 25,000 cells/well. The cells are incubated overnight at 37° C. and 5% CO2 in a culture medium (Nutrient Mixture ‘am’s F12, 10% by volume of FCS (fetal calf serum), 18 μg/ml of L-proline). On the following day the cells are incubated with Fluo-4 (Fluo-4 2 μM, Pluronic F127 0.01 by volume, Molecular Probes in HBSS (Hank's buffered saline solution), Gibco Invitrogen GmbH, Karlsruhe, Germany) for 30 minutes at 37° C. The plates are then washed 3 times with HBSS buffer and, after another incubation over a period of 15 minutes at room temperature, are used in the FLIPR for Ca^2+ measurement. The Ca^2+-dependent fluorescence is measured prior to and following the addition of the substances being examined (wavelength λex=488 nm, λem=540 nm). Quantification is carried out by measuring the highest fluorescence intensity (PC, fluorescence counts) over time.
The FLIPR protocol consists of 2 substance additions. First of all, the substances to be tested (10 μM) are pipetted onto the cells and the Ca^2+ influx is compared with the control (capsaicin 10 μM) (percentage activation based on the Ca^2+ signal following addition of 10 μM of capsaicin). Following incubation over a period of 5 minutes 100 nM of capsaicin are applied and the influx of Ca^2+ is likewise determined.
Desensitizing agonists and antagonists led to a suppression of the Ca^2+ influx. The percentage inhibition compared with the maximum attainable inhibition using 10 μM of capsaicin is calculated.
Based on the percentage displacement effected by different concentrations of the compounds of the general formula I to be tested, IC50 inhibition concentrations are calculated which cause 50 percent displacement of capsaicin. Conversion using the Cheng Prusoff equation gave Ki values for the test substances (Cheng, Prusoff; Bioch. Pharmacol. 22, 3099-3108, 1973).

Assay [2] deals with vanilloid receptor 1 (VR1/TRPV1-Receptor) (Homo sapiens, UniProt Q8NER1). Kind of assay: VR1 functional assay following pH-stimulus.
vanilloid receptor 1 (VR1/TRPV1-Receptor), sequence (Q8NER1 whole entry): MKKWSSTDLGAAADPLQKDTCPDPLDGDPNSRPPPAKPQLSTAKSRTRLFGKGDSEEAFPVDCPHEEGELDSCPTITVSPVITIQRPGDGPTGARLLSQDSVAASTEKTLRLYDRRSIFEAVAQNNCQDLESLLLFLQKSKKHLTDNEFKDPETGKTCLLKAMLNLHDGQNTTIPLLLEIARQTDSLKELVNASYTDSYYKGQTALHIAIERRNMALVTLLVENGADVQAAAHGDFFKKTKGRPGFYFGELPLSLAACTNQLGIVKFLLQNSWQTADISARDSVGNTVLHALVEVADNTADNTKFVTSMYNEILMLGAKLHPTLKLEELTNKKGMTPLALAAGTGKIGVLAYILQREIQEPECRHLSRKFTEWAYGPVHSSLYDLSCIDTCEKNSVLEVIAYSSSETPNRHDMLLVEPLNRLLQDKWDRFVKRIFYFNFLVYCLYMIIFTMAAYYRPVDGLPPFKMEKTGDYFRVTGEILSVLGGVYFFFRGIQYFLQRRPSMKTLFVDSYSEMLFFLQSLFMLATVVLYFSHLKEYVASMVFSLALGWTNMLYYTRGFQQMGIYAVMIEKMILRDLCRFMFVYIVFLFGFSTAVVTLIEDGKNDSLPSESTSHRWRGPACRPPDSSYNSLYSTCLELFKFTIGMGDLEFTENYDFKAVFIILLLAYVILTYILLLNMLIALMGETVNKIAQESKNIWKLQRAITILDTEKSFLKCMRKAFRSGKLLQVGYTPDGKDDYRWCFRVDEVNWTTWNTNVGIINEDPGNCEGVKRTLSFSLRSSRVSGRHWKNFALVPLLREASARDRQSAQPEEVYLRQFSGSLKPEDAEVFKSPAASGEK
Assay [3] addresses T2, vanilloid receptor 1 (VR1/TRPV1) (Rattus norvegicus, UniProt O35433).
T2 construct: The vertebral column is removed from decapitated rats; from tissue; host or cells: primary cells from rat dorsal root ganglia (DRG)
Kind of assay: Functional FLIPR Ca2+ influx assay on vanilloid receptor 1, capsaicin stimulus (Pharmacological Method I). To be noted: for pKi: capsaicin stimulus.
Excerpt: The agonistic or antagonistic action of the substances to be investigated on the vanilloid receptor 1 (VR1/TRPV1) of the species rat can be determined using the following assay. According to this assay, the Ca^2+ influx through the receptor channel is quantified with the aid of a Ca^2+-sensitive dye (Type Fluo-4, Molecular Probes Europe BV, Leiden Netherlands) in a fluorescent imaging plate reader (FLIPR, Molecular Devices, Sunnyvale, USA).
The vertebral column is removed from decapitated rats and this is laid directly in a cold, i.e. ice bath-surrounded, HBSS buffer (Hank's buffered saline solution, Gibco Invitrogen GmbH, Karlsruhe, Germany) and 1% by volume of an AA solution (antibiotics/antimycotics solution, PAA, Pasching, Austria) is added. The vertebral column is cut in two longitudinally and the vertebral canal is removed together with fascias. Subsequently, the dorsal root ganglia (DRGs) are removed and in turn stored in cold HBSS buffer to which 1% by volume of an AA solution has been added. The DRGs completely freed from blood residues and spinal nerves are in each case transferred to 500 μL of cold collagenase Type 2 (PAA, Pasching, Austria) and incubated at 37° C. for 35 minutes. […] On completion of incubation, the enzyme solution is carefully pipetted off and 500 μL of complete medium are added to the DRGs in each case. The DRGs are in each case repeatedly suspended, drawn through No. 1, No. 12 and No. 16 needles by means of a syringe and transferred to 50 mL Falcon tubes and these are filled to 15 mL with complete medium. The contents of each Falcon tube are in each case filtered through a 70 μm Falcon filter insert and centrifuged at 1200 rpm and room temperature for 10 minutes. The resulting pellet is in each case taken up in 250 μL of complete medium and the cell count is determined.
The number of cells in the suspension is adjusted to 3×10^5 per mL and in each case 150 μL of this suspension are added to a well of the cell culture plates coated as described above.
The cells are then loaded with 2 μM Fluo-4 and 0.01% by volume of Pluronic F127 (Molecular Probes Europe BV, Leiden Netherlands) in HBSS buffer (Hank's buffered saline solution, Gibco Invitrogen GmbH, Karlsruhe, Germany) at 37° C. for 30 min, washed 3 times with HBSS buffer and, after a further incubation of 15 minutes at room temperature, employed in the FLIPR assay for Ca^2+ measurement. […] Quantification is carried out by measuring the highest fluorescence intensity (FC, fluorescence counts) over time.
Initially, the compounds to be tested (10 μM) are pipetted onto the cells and the Ca^2+ influx is compared with the control (capsaicin 10 μM). Information is gained therefrom in % activation relative to the Ca^2+ signal after addition of 10 μM of capsaicin (CP). After incubation for 5 minutes, 100 nM of capsaicin are applied and the influx of Ca^2+ is likewise determined.
Desensitizing agonists and antagonists lead to suppression of the Ca^2+ influx. The percentage inhibition is calculated in comparison with the maximum inhibition achieved with 10 μM of capsaicin.
Triplicate determinations (n=3) are carried out and these are repeated in at least 3 independent experiments (N=4).

Assay [4] concerns the target T1, vanilloid receptor (VR1). Kind of assay: Functional FLIPR Ca2+ influx assay in CHO-K1 cells transfected with the VR1 gene, capsaicin stimulus (Pharmacological Method II). The following applies: read-out: inhibition (in percent), Human Capsaicin.
[5] abbreviates: read-out: inhibition (in percent), Human following pH-stimulus.
[6] abbreviates: capsaicin, read-out: inhibition (in percent), Rat Capsaicin.

Structures are written as SMILES. pIC50, pKi: −log10 of the molar value.

T2 sequence (O35433 whole entry): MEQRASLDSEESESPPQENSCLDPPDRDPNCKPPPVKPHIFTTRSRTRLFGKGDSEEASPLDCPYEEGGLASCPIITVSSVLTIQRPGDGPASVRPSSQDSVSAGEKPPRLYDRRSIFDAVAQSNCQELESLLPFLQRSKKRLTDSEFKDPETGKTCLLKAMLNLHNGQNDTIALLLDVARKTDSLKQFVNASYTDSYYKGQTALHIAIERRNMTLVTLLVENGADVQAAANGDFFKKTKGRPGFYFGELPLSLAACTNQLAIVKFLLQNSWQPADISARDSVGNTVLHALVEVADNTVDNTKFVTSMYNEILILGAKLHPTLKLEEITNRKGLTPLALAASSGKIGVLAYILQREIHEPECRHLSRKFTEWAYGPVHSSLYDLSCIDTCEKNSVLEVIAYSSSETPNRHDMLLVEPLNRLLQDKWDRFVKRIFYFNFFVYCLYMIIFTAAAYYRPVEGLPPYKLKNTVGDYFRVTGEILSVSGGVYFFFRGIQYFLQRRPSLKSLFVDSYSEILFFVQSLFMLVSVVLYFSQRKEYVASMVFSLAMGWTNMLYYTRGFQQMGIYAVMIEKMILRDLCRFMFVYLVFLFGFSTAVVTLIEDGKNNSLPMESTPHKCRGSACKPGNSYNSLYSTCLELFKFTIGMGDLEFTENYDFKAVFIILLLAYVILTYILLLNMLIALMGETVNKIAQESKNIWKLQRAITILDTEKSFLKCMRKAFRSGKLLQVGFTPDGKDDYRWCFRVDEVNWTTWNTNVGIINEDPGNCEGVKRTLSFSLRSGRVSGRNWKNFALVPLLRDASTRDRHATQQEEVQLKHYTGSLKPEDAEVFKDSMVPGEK
T1 sequence (Q8NER1 whole entry): as the sequence (Q8NER1 whole entry) above

Consider `CC1CCN(c2nc(C(F)(F)F)ccc2CNC(=O)C(c2ccc(NS(C)(=O)=O)c(F)c2)C2CCCCC2)CC1` (centres unmarked) [Example 1, 2-Cyclohexyl-2-(3-fluoro-4-(methylsulfonamido)phenyl)-N-((2-(4-methylpiperidin-1-yl)-6-(trifluoromethyl)pyridin-3-yl)methyl)acetamide], for which the negative logarithm of the Ki (pKi) (as a rule, −log10 of the Ki, conventionally taken in molar units) in assay [1] is 7.51. The negative logarithm of the IC50 (pIC50) – broadly, −log10 of the IC50, conventionally taken in molar units – in assay [2] is 6.93.

For `CS(=O)(=O)Nc1ccc(C(C(=O)NCc2ccc(C(F)(F)F)nc2SC2CCCCC2)C2CCCCC2)cc1F` (centres unmarked) [Example 2, 2-Cyclohexyl-N-((2-(cyclohexylthio)-6-(trifluoromethyl)pyridin-3-yl)methyl)-2-(3-fluoro-4-(methylsulfonamido)phenyl)acetamide], in assay [3], the pKi was 7.01. Besides, in assay [4], the inhibition (usually the share of the control response that was lost under treatment) at 1 µM turned out to be 2% and the inhibition at 5 µM was determined as 31%. Also, the pIC50 in assay [2] is 5.86.

`CC1CCN(c2nc(C(F)(F)F)ccc2CNC(=O)C(c2ccccc2)c2ccc(NS(C)(=O)=O)c(F)c2)CC1` (centres unmarked) [Example 3, 2-(3-Fluoro-4-(methylsulfonamido)phenyl)-N-((2-(4-methylpiperidin-1-yl)-6-(trifluoromethyl)pyridin-3-yl)methyl)-2-phenylacetamide] had a negative logarithm of the Ki (pKi) in assay [1] of 8.89. In assay [2], this compound showed a pIC50 of 7.10.

In assay [1], `CS(=O)(=O)Nc1ccc(C(C(=O)NCc2ccc(C(F)(F)F)nc2SC2CCCCC2)c2ccccc2)cc1F` (centres unmarked) [Example 4, N-((2-(Cyclohexylthio)-6-(trifluoromethyl)pyridin-3-yl)methyl)-2-(3-fluoro-4-(methylsulfonamido)phenyl)-2-phenylacetamide] showed a pKi of 7.20. In assay [2], this compound showed a pIC50 of 5.80.

Take `CC1CCN(c2nc(C(F)(F)F)ccc2CNC(=O)C(C)(C)c2ccc(NS(C)(=O)=O)c(F)c2)CC1` [Example 5, 2-(3-Fluoro-4-(methylsulfonamido)phenyl)-2-methyl-N-((2-(4-methylpiperidin-1-yl)-6-(trifluoromethyl)pyridin-3-yl)methyl)propanamide]: the pKi in assay [1] was 7.31; in assay [3], 7.34. The same compound gave a pIC50 in assay [2] of 6.05.

Turning to `CC(C)(C(=O)NCc1ccc(C(F)(F)F)nc1SC1CCCCC1)c1ccc(NS(C)(=O)=O)c(F)c1` [Example 6, N-((2-(Cyclohexylthio)-6-(trifluoromethyl)pyridin-3-yl)methyl)-2-(3-fluoro-4-(methylsulfonamido)phenyl)-2-methylpropanamide], in assay [1], the pKi was 7.18. In assay [3], this compound gave a pKi of 7.46. For the same compound, the inhibition at 0.1 µM in assay [2] (@ 0.1 μM, read-out: inhibition (in percent), Human following pH-stimulus) was 4%. Further, in assay [2] (setting [5]), the inhibition at 1 µM is 20%, the inhibition at 5 µM was found to be 42% and the inhibition at 10 µM was determined as 54%.

On to `CCC(C)(C(=O)NCc1ccc(C(F)(F)F)nc1N1CCC(C)CC1)c1ccc(NS(C)(=O)=O)c(F)c1` (centres unmarked) [Example 7, 2-(3-Fluoro-4-(methylsulfonamido)phenyl)-2-methyl-N-((2-(4-methylpiperidin-1-yl)-6-(trifluoromethyl)pyridin-3-yl)methyl)butanamide], for which, in assay [1], the negative-log Ki (pKi) is 6.91. Also, in assay [3], the pKi was 7.42. In assay [2] (setting [5]), the inhibition at 1 µM worked out at 0%, the inhibition at 5 µM came out at 15% and the inhibition at 10 µM came to 18%.

As to `CC1CCN(c2nc(C(F)(F)F)ccc2CNC(=O)C2(c3ccc(NS(C)(=O)=O)c(F)c3)CCCC2)CC1` [Example 13, 1-(3-Fluoro-4-(methylsulfonamido)phenyl)-N-((2-(4-methylpiperidin-1-yl)-6-(trifluoromethyl)pyridin-3-yl)methyl)cyclopentanecarboxamide], in assay [3] (@ 0.1 μM, capsaicin, read-out: inhibition (in percent), Rat Capsaicin), the inhibition at 0.1 µM amounted to 0%. In assay [3] (setting [6]), the inhibition at 1 µM worked out at 27% and the inhibition at 5 µM was 43%. In assay [4], the inhibition at 1 µM worked out at 0% and the inhibition at 5 µM was found to be 25%.

Regarding `CS(=O)(=O)Nc1ccc(C2(C(=O)NCc3ccc(C(F)(F)F)nc3SC3CCCCC3)CCCCC2)cc1F` [Example 16, N-((2-(Cyclohexylthio)-6-(trifluoromethyl)pyridin-3-yl)methyl)-1-(3-fluoro-4-(methylsulfonamido)phenyl)cyclohexanecarboxamide], in assay [3] (setting [6]), the inhibition at 1 µM is 15% and the inhibition at 5 µM was found to be 69%.

On to `CC1CCN(c2nc(C(F)(F)F)ccc2CNC(=O)C(c2ccc(NS(C)(=O)=O)c(F)c2)C2CCCC2)CC1` (centres unmarked) [Example 21, 2-Cyclopentyl-2-(3-fluoro-4-(methylsulfonamido)phenyl)-N-((2-(4-methylpiperidin-1-yl)-6-(trifluoromethyl)pyridin-3-yl)methyl)acetamide], for which the negative-log Ki (pKi) was 7.05 in assay [1] and 7.69 in assay [3]. The same compound had a pIC50 in assay [2] of 6.02.

For `CS(=O)(=O)Nc1ccc(C(C(=O)NCc2ccc(C(F)(F)F)nc2SC2CCCCC2)C2CCCC2)cc1F` (centres unmarked) [Example 22, N-((2-(Cyclohexylthio)-6-(trifluoromethyl)pyridin-3-yl)methyl)-2-cyclopentyl-2-(3-fluoro-4-(methylsulfonamido)phenyl)acetamide], in assay [1], the pKi was 6.99. For the same compound, the pKi in assay [3] was 7.50. For the same compound, in assay [2] (setting [5]), the inhibition at 1 µM worked out at 0%, the inhibition at 5 µM turned out to be 27% and the inhibition at 10 µM was 46%.

On to `CC1CCN(c2nc(C(F)(F)F)ccc2CNC(=O)C(c2cccc(F)c2)c2ccc(NS(C)(=O)=O)c(F)c2)CC1` (centres unmarked) [Example 34, 2-(3-Fluoro-4-(methylsulfonamido)phenyl)-2-(3-fluorophenyl)-N-((2-(4-methylpiperidin-1-yl)-6-(trifluoromethyl)pyridin-3-yl)methyl)acetamide], for which the negative-log Ki (pKi) in assay [1] was 8.62. Besides, the negative logarithm of the IC50 (pIC50) in assay [2] was 7.67.

Consider `CC1CCN(c2nc(C(F)(F)F)ccc2CNC(=O)C(c2ccc(F)cc2)c2ccc(NS(C)(=O)=O)c(F)c2)CC1` (centres unmarked) [Example 35, 2-(3-Fluoro-4-(methylsulfonamido)phenyl)-2-(4-fluorophenyl)-N-((2-(4-methylpiperidin-1-yl)-6-(trifluoromethyl)pyridin-3-yl)methyl)acetamide], for which the values for the pKi in assay [1] and in assay [3] were 8.47 and 7.87, respectively. Besides, the negative logarithm of the IC50 (pIC50) in assay [2] was 6.61.

For `Cc1ccccc1C(C(=O)NCc1ccc(C(F)(F)F)nc1N1CCC(C)CC1)c1ccc(NS(C)(=O)=O)c(F)c1` (centres unmarked) [Example 40, 2-(3-Fluoro-4-(methylsulfonamido)phenyl)-N-((2-(4-methylpiperidin-1-yl)-6-(trifluoromethyl)pyridin-3-yl)methyl)-2-o-tolylacetamide], the pKi was 7.37 in assay [1] and 6.96 in assay [3]. This compound also showed a negative-log IC50 (pIC50) in assay [2] of 5.50.

As for `Cc1cccc(C(C(=O)NCc2ccc(C(F)(F)F)nc2N2CCC(C)CC2)c2ccc(NS(C)(=O)=O)c(F)c2)c1` (centres unmarked) [Example 41, 2-(3-Fluoro-4-(methylsulfonamido)phenyl)-N-((2-(4-methylpiperidin-1-yl)-6-(trifluoromethyl)pyridin-3-yl)methyl)-2-m-tolylacetamide], the negative logarithm of the Ki (pKi) was 10.00 in assay [1] and 8.74 in assay [3]. Also, the pIC50 in assay [2] is 7.06.

Consider `Cc1ccc(C(C(=O)NCc2ccc(C(F)(F)F)nc2N2CCC(C)CC2)c2ccc(NS(C)(=O)=O)c(F)c2)cc1` (centres unmarked) [Example 42, 2-(3-Fluoro-4-(methylsulfonamido)phenyl)-N-((2-(4-methylpiperidin-1-yl)-6-(trifluoromethyl)pyridin-3-yl)methyl)-2-p-tolylacetamide], for which the pKi in assay [1] is 8.96; in assay [3] it was 8.20. The compound further gave a pIC50 in assay [2] of 7.50.

In assay [3], `Cc1ccc(CC(C(=O)NCc2ccc(C(F)(F)F)nc2N2CCC(C)CC2)c2ccc(NS(C)(=O)=O)c(F)c2)cc1` (centres unmarked) [Example 77, 2-(3-Fluoro-4-(methylsulfonamido)phenyl)-N-((2-(4-methylpiperidin-1-yl)-6-(trifluoromethyl)pyridin-3-yl)methyl)-3-p-tolylpropanamide] showed a pKi of 6.80. Further, in assay [4], the inhibition at 1 µM amounted to 0% and the inhibition at 5 µM was 17%.

(Values after US8735426B2, “Vanilloid receptor ligands, pharmaceutical compositions containing them, process for making them and use thereof for treating pain and other conditions” (Gruenenthal GmbH, priority 2007, dated 2014).)
